From the supplement of paper PMC11003180

How the values were obtained:
Experiment in all cases: drug sensitivity score (DSS) from 5-dose viability curve (DSS (area-based score, 0 = no response)); higher = more sensitive (stronger viability inhibition); extreme values may be limits of the assay
[1] = test system: MDCK wild-type - doxycycline; settings: doxycycline: none; 72 h
Outline: (§1)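 Parental MDCK cells without doxycycline were dispensed at 2000 cells/well onto pre-spotted 384-well plates. The plates held an oncology library of 528 drugs at five doses (1-10,000 nM) and were incubated 72 h at 37 °C. Viability was read as CellTiter-Glo luminescence and scaled per plate between vehicle and positive controls. Drug sensitivity scores came from dose-response curve fits in the Breeze pipeline.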

[2] = test system: MDCK p60AmotL2-inducible + doxycycline (p60AmotL2 expressing); settings: doxycycline: 10 ng/mL; 72 h
Outline: as §1, with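 “and MDCK cells with doxycycline-inducible p60AmotL2, both given” for “without”, “doxycycline at 10 ng/mL in the medium before plating,” for “doxycycline”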

[3] = test system: MDCK wild-type + doxycycline; settings: doxycycline: 10 ng/mL; 72 h
Outline: as §1, with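 “and MDCK cells with doxycycline-inducible p60AmotL2, both given” for “without”, “doxycycline at 10 ng/mL in the medium before plating,” for “doxycycline”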

| Compound | drug sensitivity score [1] | drug sensitivity score [2] | drug sensitivity score [3] |
| --- | --- | --- | --- |
| Cc1cc(-c2nc(-c3ccc(OC(F)(F)F)cc3)no2)nn1Cc1ccnc(N2CCN(C3CC3)CC2)c1 [BAY 87-2243] | 0 | 0 | 0 |
| Nc1nc(Nc2ccc3c(c2)CC[C@@H](N2CCCC2)CC3)nn1-c1cc2c(nn1)-c1ccccc1CCC2 [BGB324] | 5.1 | 5.8 | 5 |
| O=C1CCc2c(Oc3ccc4c(c3)[C@@H]3[C@H](O4)[C@H]3c3nc4cc(C(F)(F)F)ccc4[nH]3)ccnc2N1 [BGB-283] | 1.6 | 6.6 | 5.4 |
| CC[C@@H]1C(=O)N(C)c2cnc(Nc3ccc(C(=O)NC4CCN(C)CC4)cc3OC)nc2N1C1CCCC1 [BI 2536] | 19.9 | 15.9 | 15.6 |
| COc1c(C)cnc(Cn2cnc3c(Cl)nc(N)nc32)c1C [BIIB021] | 17.4 | 20.6 | 19.6 |
| CC1(C)C(C(=O)Nc2ccc(S(=O)(=O)c3ccc(NC(=O)C4C(C)(C)C4(C)C)cc3)cc2)C1(C)C [BRD7116] | 0 | 0 | 0 |
| O=C(Nc1cccc(Nc2ncc(Br)c(NCCc3cnc[nH]3)n2)c1)N1CCCC1 [BX-912] | 0.1 | 4.1 | 0.8 |
| Cc1ccc(NC(=O)c2ccc(CN3CC[C@H](N(C)C)C3)c(C(F)(F)F)c2)cc1Nc1nccc(-c2cncnc2)n1 [Bafetinib] | 0 | 0 | 0 |
| CCS(=O)(=O)N1CC(CC#N)(n2cc(-c3ncnc4[nH]ccc34)cn2)C1 [Baricitinib] | 0 | 0 | 0 |
| O=C(/C=C/c1cccc(S(=O)(=O)Nc2ccccc2)c1)NO [Belinostat] | 14 | 19 | 15.8 |
| N#CC(c1ccnc(OCc2ccc(CN3CCOCC3)cc2)n1)c1nc2ccccc2s1 (centres undefined) [Bentamapimod] | 1.2 | 2.1 | 1.5 |
| C=C(c1ccc(C(=O)O)cc1)c1cc2c(cc1C)C(C)(C)CCC2(C)C [Bexarotene] | 0.2 | 0 | 0 |
| CCNC(=O)CCC/C=C\C[C@@H]1[C@@H](/C=C/[C@@H](O)CCc2ccccc2)[C@H](O)C[C@@H]1O [Bimatoprost] | 0 | 0 | 0 |
| Cn1cnc2c(F)c(Nc3ccc(Br)cc3F)c(C(=O)NOCCO)cc21 [Binimetinib] | 0 | 5.3 | 0 |
| Cc1sc2c(c1C)C(c1ccc(Cl)cc1)=N[C@@H](CC(=O)Nc1ccc(O)cc1)c1nnc(C)n1-2 [Birabresib] | 5.8 | 16.6 | 10.7 |
| CC[C@H](NC(=O)[C@H](C)NC)C(=O)N1C[C@@H](O)C[C@H]1Cc1c(-c2[nH]c3cc(F)ccc3c2C[C@@H]2C[C@H](O)CN2C(=O)[C@H](CC)NC(=O)[C@H](C)NC)[nH]c2cc(F)ccc12 [Birinapant] | 0 | 0 | 0 |
| Cc1c(N)nc([C@H](CC(N)=O)NC[C@H](N)C(N)=O)nc1C(=O)N[C@H](C(=O)N[C@H](C)[C@@H](O)[C@H](C)C(=O)N[C@H](C(=O)NCCc1nc(-c2nc(C(=O)NCCC[S+](C)C)cs2)cs1)[C@@H](C)O)[C@@H](OC1OC(CO)C(O)C(O)C1OC1OC(CO)C(O)C(OC(N)=O)C1O)c1cnc[nH]1 (some centres undefined) [Bleomycin] | 0 | 0.6 | 0 |
| CC(C)C[C@H](NC(=O)[C@H](Cc1ccccc1)NC(=O)c1cnccn1)B(O)O [Bortezomib] | 26.7 | 25 | 25.9 |
| COc1cc(Nc2c(C#N)cnc3cc(OCCCN4CCN(C)CC4)c(OC)cc23)c(Cl)cc1Cl [Bosutinib] | 7.5 | 14.1 | 10.4 |
| COc1cc(N2CCC(N3CCN(C)CC3)CC2)ccc1Nc1ncc(Cl)c(Nc2ccccc2P(C)(C)=O)n1 [Brigatinib] | 4.1 | 5.2 | 2.6 |
| Cc1cc2c(F)c(Oc3ncnn4cc(OC[C@@H](C)O)c(C)c34)ccc2[nH]1 [Brivanib] | 0 | 0 | 0 |
| CCC/C=C/C=C/C(=O)O[C@H]1/C(=C/C(=O)OC)C[C@H]2C[C@H]([C@@H](C)O)OC(=O)C[C@H](O)C[C@@H]3C[C@H](OC(C)=O)C(C)(C)[C@](O)(C[C@@H]4C/C(=C/C(=O)OC)C[C@H](/C=C/C(C)(C)[C@]1(O)O2)O4)O3 [Bryostatin 1] | 0 | 0 | 0 |

| Compound | drug sensitivity score [1] | drug sensitivity score [2] | drug sensitivity score [3] |
| --- | --- | --- | --- |
| Nc1cc(C(F)(F)F)c(-c2cc(N3CCOCC3)nc(N3CCOCC3)n2)cn1 [Buparlisib] | 5.1 | 6.3 | 7 |
| Cc1nc2cccc(N)c2c(=O)n1C1CCC(=O)NC1=O (centres undefined) [CC122] | 0 | 0 | 0 |
| CCN1C(=O)CNc2ncc(-c3ccc(-c4nc[nH]n4)nc3C)nc21 [CC-115] | 8.9 | 9.4 | 7.8 |
| CO[C@H]1CC[C@H](N2C(=O)CNc3ncc(-c4ccc(C(C)(C)O)nc4)nc32)CC1 [CC-223] | 2.8 | 5.2 | 2.9 |
| COc1cc(C)[nH]c(=O)c1CNC(=O)c1c(C)n([C@H](C)C2CCOCC2)c2ccccc12 [CPI-360] | 0 | 1.3 | 0.1 |
| Cc1noc2c1-c1ccccc1C(c1ccc(Cl)cc1)=N[C@H]2CC(N)=O [CPI-0610] | 3.1 | 10.9 | 4.8 |
| O=C(O)CCCCC(CCSCc1ccccc1)SCc1ccccc1 (centres undefined) [CPI-613] | 0 | 0 | 0 |
| CN(C)c1cc2c(cc1Sc1nc3c(N)nccc3n1CCNCC(C)(C)C)OCO2 [CUDC-305] | 17.7 | 18 | 17 |
| COc1ccc(-c2nc(N3CCOCC3)c3sc(CN(C)c4ncc(C(=O)NO)cn4)cc3n2)cn1 [CUDC-907] | 27.2 | 30.3 | 28.3 |
| CO[C@H]1C(=O)[C@]2(C)[C@@H](OC)C[C@H]3OC[C@@]3(OC(C)=O)[C@H]2[C@H](OC(=O)c2ccccc2)[C@]2(O)C[C@H](OC(=O)[C@H](O)[C@@H](NC(=O)OC(C)(C)C)c3ccccc3)C(C)=C1C2(C)C [Cabazitaxel] | 33.8 | 38 | 37.7 |
| COc1cc2nccc(Oc3ccc(NC(=O)C4(C(=O)Nc5ccc(F)cc5)CC4)cc3)c2cc1OC [Cabozantinib] | 0 | 0 | 0 |
| C=CC(=O)Nc1cc2c(Nc3ccc(F)c(Cl)c3)ncnc2cc1OCCCN1CCOCC1 [Canertinib] | 7.9 | 15.2 | 9.6 |
| CCCCCOC(=O)Nc1nc(=O)n([C@@H]2O[C@H](C)[C@@H](O)[C@H]2O)cc1F [Capecitabine] | 5.1 | 7.1 | 7 |
| CNC(=O)c1ccc(-c2cnc3ncc(Cc4ccc5ncccc5c4)n3n2)cc1F [Capmatinib] | 0 | 0 | 0 |
| O=C(O)C1(C(=O)O)CCC1.[NH2-].[NH2-].[Pt+2] [Carboplatin] | 3.6 | 5 | 4.4 |
| CC(C)C[C@H](NC(=O)[C@H](CCc1ccccc1)NC(=O)CN1CCOCC1)C(=O)N[C@@H](Cc1ccccc1)C(=O)N[C@@H](CC(C)C)C(=O)[C@@]1(C)CO1 [Carfilzomib] | 21.2 | 25.7 | 24.6 |
| COc1cc2c(Oc3ccc4[nH]c(C)cc4c3F)ncnc2cc1OCCCN1CCCC1 [Cediranib] | 0 | 0.3 | 0 |
| Cc1ccc(-c2cc(C(F)(F)F)nn2-c2ccc(S(N)(=O)=O)cc2)cc1 [Celecoxib] | 0 | 0 | 0 |
| CCS(=O)(=O)N1CCN(c2ccc(Nc3ncc(C(N)=O)c(NC4CC4)n3)cc2)CC1 [Cerdulatinib] | 0.2 | 0.2 | 0 |
| Cc1cc(Nc2ncc(Cl)c(Nc3ccccc3S(=O)(=O)C(C)C)n2)c(OC(C)C)cc1C1CCNCC1 [Ceritinib] | 0 | 0 | 0.6 |
| CCN(CC)CCCC(C)Nc1ccnc2cc(Cl)ccc12 (centres undefined) [Chloroquine] | 5.1 | 5.2 | 4.5 |
